Source: ChEMBL document CHEMBL4396958, “Anti-inflammatory phenylpropanoid glycosides from the fruits of Forsythia suspensa” (Bioorg Med Chem Lett, 2019)

Assays:
[1] = system: Macrophage; assay: Inhibition of TNFalpha expression in LPS-induced macrophages (unknown origin) incubated for 24 hrs by ELISA; format: functional, cell-based
[2] = system: Macrophage; assay: Inhibition of TNFalpha expression in LPS-induced macrophages (unknown origin) at 10 uM incubated for 24 hrs by ELISA relative to control; format: functional

| IC50 [1] | SMILES | inhibition at 10 µM [2] |
| --- | --- | --- |
| 134 nM | C[C@@H]1C[C@H]2[C@@H]3CCC4=CC(=O)C=C[C@]4(C)[C@@]3(F)[C@@H](O)C[C@]2(C)[C@@]1(O)C(=O)CO [DEXAMETHASONE] | 82.5% |
| 1050 nM | O=C(/C=C/c1ccc(O)cc1)OC[C@H]1O[C@@H](Oc2ccc(/C=C/C(=O)OC[C@H]3OC(O)[C@H](O)[C@@H](O)[C@@H]3O)cc2O)[C@H](O)[C@@H](O)[C@@H]1O (some centres undefined) | 98.3% |
